Results on four molecules are retold here after article PMC9268446 (Molecules, 2022).

One assay has as its target HCoV-NL63 M^pro (Human coronavirus NL63, UniProt P0C6X5). The assay can be described thus: biochemical.
In the next assay the target is EV-A71 3C^pro (Human enterovirus 71, UniProt Q66478). Put plainly: FRET assay, inhibition of enterovirus A71 3C protease. It counts as biochemical. How it is done:
(§1) We had previously shown that enterovirus 3C proteases have a substrate-binding site featuring some similarities with coronavirus main proteases, although their S2 subsite tends to be more open. Leucine is the ideal P2-amino-acid residue in M^pro substrates, whereas most 3C^pros favor Phe in this position.
(§2) Assay samples contained 59 µL of reaction buffer (20 mM HEPES, 120 mM NaCl, 0.4 mM EDTA, 20% glycerol, 4 mM DTT (freshly added before the measurements), pH 7.0, 10 µL enzyme solution (final concentration of Coxsackievirus B3 3C^pro or enterovirus A71 3C^pro: 1.0 µM).
(§3) All reactions were monitored at 37 °C for 15 min. Measurements of enzymatic activity were performed in triplicate and the value was presented as mean ± standard deviation (SD). The initial velocity of the enzymatic reaction with compounds was calculated by linear regression for the first minute of the progression curve. […] V0 is the velocity obtained for the DMSO control (inhibitor concentration of 0 µM).
(§4) […] of inhibitors (dose-response-inhibition). The IC50 values were calculated by non-linear regression (Curve fit: Y: Bottom + (Top-Bottom)/(1 + 10^ ((X-lg IC50))) using GraphPad Prism 9.0.

The target of another assay is CVB3 3C^pro (Coxsackievirus B3, UniProt P03313). Put plainly: FRET assay, inhibition of Coxsackievirus B3 3C protease. In kind it is biochemical. How it is done:
as §1, §2, §3, §4

The next assay deals with SARS-CoV-2 M^pro (Severe acute respiratory syndrome coronavirus 2, UniProt P0DTD1). Put plainly: FRET assay, inhibition of recombinant SARS-CoV-2 Mpro (optimized conditions). In kind it is biochemical. The note with it: FRET substrate Dabcyl-KTSAVLQ↓SGFRKM-E(Edans)-NH2, 50 nM enzyme, pH 7.0, 37 °C, 10 min preincubation.
The target of another assay is SARS-CoV M^pro (Severe acute respiratory syndrome coronavirus, UniProt P0C6X7). It counts as biochemical.
The mark [1] stands for this setting: inhibitor concentration not given, data not shown.

Chain of HCoV-NL63 M^pro (P0C6X5 2940-3242): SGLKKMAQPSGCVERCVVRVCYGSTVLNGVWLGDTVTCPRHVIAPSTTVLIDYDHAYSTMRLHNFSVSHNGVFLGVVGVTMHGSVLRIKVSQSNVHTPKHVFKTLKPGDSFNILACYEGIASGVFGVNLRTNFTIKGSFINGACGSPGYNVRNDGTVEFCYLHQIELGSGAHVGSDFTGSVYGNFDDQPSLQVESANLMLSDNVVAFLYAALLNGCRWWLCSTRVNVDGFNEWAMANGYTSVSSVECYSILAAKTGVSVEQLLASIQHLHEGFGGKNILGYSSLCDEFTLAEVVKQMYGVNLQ
Chain of CVB3 3C^pro (P03313 1541-1723): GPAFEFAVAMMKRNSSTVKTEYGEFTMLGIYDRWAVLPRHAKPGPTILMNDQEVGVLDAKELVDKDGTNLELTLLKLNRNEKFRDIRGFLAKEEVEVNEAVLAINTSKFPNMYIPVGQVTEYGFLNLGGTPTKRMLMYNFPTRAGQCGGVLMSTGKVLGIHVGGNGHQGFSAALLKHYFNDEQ
Chain of EV-A71 3C^pro (Q66478 1549-1731): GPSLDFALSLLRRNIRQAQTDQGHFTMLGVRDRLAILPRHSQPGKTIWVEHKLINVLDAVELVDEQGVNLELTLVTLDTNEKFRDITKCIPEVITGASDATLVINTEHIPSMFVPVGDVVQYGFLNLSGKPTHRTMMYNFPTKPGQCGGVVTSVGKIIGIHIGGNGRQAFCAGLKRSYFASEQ

Take `CC(C)(C)NC(=O)NC(C(=O)N1CC2C(C1C(=O)NC(CC1CCNC1=O)C(=O)C(N)=O)C2(C)C)C(C)(C)C` [MG-78, (1R,2S,5S)-N-((S)-4-Amino-3,4-dioxo-1-((S)-2-oxopyrrolidin-3-yl)butan2-yl)-3-((S)-2-(3-tert-butylureido)-3,3-dimethylbutanoyl)-6,6-dimethyl-3-azabicylo[3.1.0]hexane-2-carboxamide]: the “Factor by which IC50 versus HCoV-NL63 M^pro is larger than that for SARS-CoV-2 M^pro” value on HCoV-NL63 M^pro is given as 25. For the same molecule, the IC50 on HCoV-NL63 M^pro came to 330 nM; at EV-A71 3C^pro (10 µM FRET substrate Dabcyl-KEALFQ↓GPPQFE(-Edans)-NH2, 1.0 µM enzyme, 37 °C, read-out: IC50 against EV-A71 3C^pro), 6700 nM; at CVB3 3C^pro (10 µM FRET substrate Dabcyl-KEALFQ↓GPPQFE(-Edans)-NH2, 1.0 µM enzyme, 37 °C, read-out: IC50 against CVB3 3C^pro) it was 1450 nM.
Regarding `CNC(=O)C(=O)[C@H](C[C@@H]1CCNC1=O)NC(=O)[C@@H]1[C@@H]2[C@H](CN1C(=O)[C@@H](NC(=O)NC(C)(C)C)C(C)(C)C)C2(C)C` [MG-131, (1R,2S,5S)-3-((S)-2-(3-tert-Butylureido)-3,3-dimethylbutanoyl) -6,6-dimethyl-N-((S)-4-(methylamino)-3,4-dioxo-1-((S)-2-oxopyrrolidin-3-yl)butan-2-yl)-3-azabicyclo[3.1.0]hexane-2-carboxamide], at SARS-CoV-2 M^pro, the IC50 amounted to 14 ± 3 nM.
As for `CC1(C)C2CN(C(=O)C=Cc3ccccc3)C(C(=O)NC(CC3CCNC3=O)C(=O)C(=O)NCc3ccccc3)C21` (centres unmarked) [XDL2a], on SARS-CoV M^pro, the “Activity in SARS-CoV M^pro assay” value is “completely inactive”.
For `CC(C)(C)[C@H](NC(=O)C(F)(F)F)C(=O)N1C[C@H]2[C@@H]([C@H]1C(=O)N[C@H](C#N)C[C@@H]1CCNC1=O)C2(C)C` [nirmatrelvir, reference compound], at EV-A71 3C^pro (setting [1]), the “Inhibition rate against the 3C protease of EV-A71” value was 33%. In addition, the “Inhibition rate against the 3C protease of CVB3” value on CVB3 3C^pro (setting [1]) is reported as 55%.

A word on the IC50: it is the concentration that inhibits the measured activity by half.
